Laboratory results published in ChEMBL document CHEMBL3885861, “Open TG-GATES”.

Organism: Rattus norvegicus
Experiment: Open TG-GATES - Regimen: Single
Type: toxicity, organism-based, Sprague-Dawley
Design: regimen Single, gender Male, age 6 weeks
Conditions: in vivo, ip, 400 mg/kg, route intraperitoneal injection, dose level High; for APTT / Bas / Eos / Fbg / Hb / Ht / Lym / MCH / MCHC / MCV / Mono / Neu / PT / Plat / RBC / Ret / WBC: tissue Blood; for KIDNEY_L / KIDNEY_R / KIDNEY_TOTAL: tissue Kidney; for LIVER: tissue Liver; for A/G / ALP / ALT / AST / BUN / CRE / Ca / Cl / DBIL / GLC / IP / K / LDH / Na / PL / RALB / TBIL / TC / TG / TP / gamma-GTP: tissue Plasma

## CC(C)=CC(=O)C=C(C)C [PHORONE]
3 h
  TERMINAL_BW: 224 g
  APTT: 18 s
  Bas: 0%
  Eos: 0.8%
  Fbg: 206.6 mg/dL
  Hb: 13.7 g/dL
  Ht: 40.8%
  Lym: 81%
  MCH: 21.9 pg
  MCHC: 33.6%
  MCV: 65.1 fL
  Mono: 5%
  Neu: 13.6%
  PT: 12.9 s
  Plat: 130 x10_4/uL
  RBC: 626.2 x10_4/ul
  Ret: 9.1%
  WBC: 81.1 x10_2/uL
  KIDNEY_L: 0.9 g
  KIDNEY_R: 1 g
  KIDNEY_TOTAL: 1.9 g
  LIVER: 9.4 g
  A/G: 2.4
  ALP: 931 IU/L
  ALT: 51 IU/L
  AST: 106.6 IU/L
  BUN: 23.4 mg/dL
  CRE: 1.1 mg/dL
  Ca: 11 mg/dL
  Cl: 99.4 meq/L
  DBIL: 0.046 mg/dL
  GLC: 292.8 mg/dL
  IP: 9.8 mg/dL
  K: 4.6 meq/L
  LDH: 282.6 IU/L
  Na: 136 meq/L
  PL: 110.6 mg/dL
  RALB: 3.8 g/dL
  TBIL: 0.9 mg/dL
  TC: 67 mg/dL
  TG: 18 mg/dL
  TP: 5.4 g/dL
  gamma-GTP: 1.8 IU/L
6 h
  TERMINAL_BW: 215 g
  APTT: 17.1 s
  Bas: 0%
  Eos: 1.2%
  Fbg: 208.2 mg/dL
  Hb: 13.4 g/dL
  Ht: 40.7%
  Lym: 61%
  MCH: 21.4 pg
  MCHC: 33%
  MCV: 64.8 fL
  Mono: 8%
  Neu: 30.2%
  PT: 13.9 s
  Plat: 123.8 x10_4/uL
  RBC: 627.6 x10_4/ul
  Ret: 9.2%
  WBC: 84.8 x10_2/uL
  KIDNEY_L: 0.9 g
  KIDNEY_R: 1 g
  KIDNEY_TOTAL: 1.9 g
  LIVER: 8.6 g
  A/G: 2.2
  ALP: 925 IU/L
  ALT: 73.2 IU/L
  AST: 174 IU/L
  BUN: 23 mg/dL
  CRE: 0.7 mg/dL
  Ca: 10.5 mg/dL
  Cl: 106.4 meq/L
  DBIL: 0.048 mg/dL
  GLC: 168 mg/dL
  IP: 11.2 mg/dL
  K: 4.4 meq/L
  LDH: 277.8 IU/L
  Na: 138.2 meq/L
  PL: 110.4 mg/dL
  RALB: 3.7 g/dL
  TBIL: 1 mg/dL
  TC: 67.2 mg/dL
  TG: 24.4 mg/dL
  TP: 5.5 g/dL
  gamma-GTP: 1.4 IU/L
9 h
  TERMINAL_BW: 210.1 g
  APTT: 17.1 s
  Bas: 0%
  Eos: 1%
  Fbg: 209.8 mg/dL
  Hb: 13.4 g/dL
  Ht: 40.7%
  Lym: 56.4%
  MCH: 21.6 pg
  MCHC: 33%
  MCV: 65.4 fL
  Mono: 8%
  Neu: 35%
  PT: 13.9 s
  Plat: 123.6 x10_4/uL
  RBC: 622.2 x10_4/ul
  Ret: 10.3%
  WBC: 125.6 x10_2/uL
  KIDNEY_L: 1 g
  KIDNEY_R: 1 g
  KIDNEY_TOTAL: 2 g
  LIVER: 8.3 g
  A/G: 2.1
  ALP: 915.4 IU/L
  ALT: 60.2 IU/L
  AST: 166.6 IU/L
  BUN: 23.8 mg/dL
  CRE: 0.6 mg/dL
  Ca: 10.9 mg/dL
  Cl: 104.6 meq/L
  DBIL: 0.06 mg/dL
  GLC: 155.2 mg/dL
  IP: 11.6 mg/dL
  K: 4.1 meq/L
  LDH: 257 IU/L
  Na: 138.2 meq/L
  PL: 107.4 mg/dL
  RALB: 3.9 g/dL
  TBIL: 0.8 mg/dL
  TC: 71 mg/dL
  TG: 38.6 mg/dL
  TP: 5.8 g/dL
  gamma-GTP: 1.2 IU/L
24 h
  TERMINAL_BW: 201.7 g
  APTT: 24.9 s
  Bas: 0%
  Eos: 0.4%
  Fbg: 190.4 mg/dL
  Hb: 14.1 g/dL
  Ht: 42.5%
  Lym: 77%
  MCH: 21.6 pg
  MCHC: 33.1%
  MCV: 65.1 fL
  Mono: 3.2%
  Neu: 19.4%
  PT: 20 s
  Plat: 121.3 x10_4/uL
  RBC: 652.2 x10_4/ul
  Ret: 7.6%
  WBC: 140.6 x10_2/uL
  KIDNEY_L: 1.1 g
  KIDNEY_R: 1.1 g
  KIDNEY_TOTAL: 2.1 g
  LIVER: 9.4 g
  A/G: 2.2
  ALP: 828.6 IU/L
  ALT: 296.8 IU/L
  AST: 1408.4 IU/L
  BUN: 19.2 mg/dL
  CRE: 0.5 mg/dL
  Ca: 10.2 mg/dL
  Cl: 110.6 meq/L
  DBIL: 0.2 mg/dL
  GLC: 167.2 mg/dL
  IP: 8.4 mg/dL
  K: 3.9 meq/L
  LDH: 4785 IU/L
  Na: 139.2 meq/L
  PL: 97.6 mg/dL
  RALB: 3.7 g/dL
  TBIL: 0.6 mg/dL
  TC: 56.8 mg/dL
  TG: 23.2 mg/dL
  TP: 5.4 g/dL
  gamma-GTP: 0.8 IU/L
